Results taken from US20230150979A1, “AMIDE-DISUBSTITUTED PYRIDINE OR PYRIDAZINE COMPOUNDS” (BRISTOL-MYERS SQUIBB COMPANY, priority 2019, published 2023).

What follows are compounds tested on IFNα-induced STAT phosphorylation (pSTAT5) in human whole blood, CD3 positive population (assay: IFNα-Induced STAT Phosphorylation in Human Whole Blood). Details: 1 h incubation with compound, 1000 U/mL recombinant human IFNα A/D for 15 min, pSTAT5 (pY694) median fluorescence in CD3 positive cells, read-out: Human WB IFNα-Induced Stat Phosph. (IC50).
Format: cell-based
Procedure: IFNα-Induced STAT Phosphorylation in Human Whole Blood
After an hour long incubation with compound, human whole blood (drawn with either EDTA or ACD-A as anti-coagulant) was stimulated with 1000 U/mL recombinant human IFNα A/D (R&D Systems 11200-2) for 15 min. The stimulation was stopped by adding Fix/Lyse buffer (BD 558049). Cells were stained with a CD3 FITC antibody (BD 555916), washed, and permeabilized on ice using Perm III buffer (BD 558050). Cells were then stained with an Alexa-Fluor 647 pSTAT5 (pY694) antibody (BD 612599) for 30 min prior to analysis on the FACS Canto II. The amount of pSTAT5 expression was quantitated by median fluorescence intensity after gating on the CD3 positive population.

IC50 [nM]	SMILES
70	COC(=O)Nc1cc(Nc2cccc(-c3ncn(C)n3)c2OC)c(C(N)=O)nn1 [Example 1, Methyl (6-carbamoyl-5-((2-methoxy-3-(1-methyl-1H-1,2,4-triazol-3-yl)phenyl)amino)pyridazin-3-yl)carbamate]
190	[2H]C([2H])([2H])NC(=O)c1nnc(NC(=O)NC)cc1Nc1cccc(-c2noc(C)n2)c1OC [Example 3, 4-((2-methoxy-3-(5-methyl-1,2,4-oxadiazol-3-yl)phenyl)amino)-N-(trideuteromethyl)-6-(3-methylureido)pyridazine-3-carboxamide]
> 10000	[2H]C([2H])([2H])NC(=O)c1nnc(NC(=O)OC)cc1Nc1ccccc1S(C)(=O)=O [Example 4, methyl (6-((methyl-d3)carbamoyl)-5-((2-(methylsulfonyl)phenyl)amino)pyridazin-3-yl)carbamate]
320	[2H]C([2H])([2H])NC(=O)c1nnc(NC(N)=O)cc1Nc1cccc(-c2ncn(C)n2)c1OC [Example 7, 4-((2-methoxy-3-(1-methyl-1H-1,2,4-triazol-3-yl)phenyl)amino)-N-(methyl-d3)-6-ureidopyridazine-3-carboxamide]
300	[2H]C([2H])([2H])NC(=O)c1cnc(NC(=O)OCC)cc1Nc1cccc(-c2noc(C)n2)c1OC [Example 8]
1100	CCNC(=O)Nc1cc(Nc2ccccc2S(C)(=O)=O)c(C(=O)NC)cn1 [Example 9]
3690	CNC(=O)Nc1cc(Nc2ccccc2S(C)(=O)=O)c(C(=O)NC)cn1 [Example 10]
1100	[2H]C([2H])([2H])NC(=O)c1nnc(NC(=O)OC)cc1Nc1cccc(-c2noc(COC)n2)c1OC [Example 14]
> 10000	[2H]C([2H])([2H])NC(=O)c1nnc(N2CCOC2=O)cc1Nc1cccc(-c2ncc(N3CCOC3=O)cn2)c1OC [Example 20]
420	[2H]C([2H])([2H])NC(=O)c1cnc(NC(=O)OCC)cc1Nc1cccc(-c2nnn(C)n2)c1OC [Example 21]
140	[2H]C([2H])([2H])NC(=O)c1nnc(NC(=O)NCCOC)cc1Nc1cccc(-c2ncn(C)n2)c1OC [Example 27]
> 10000	[2H]C([2H])([2H])NC(=O)c1nnc(NC(=O)N2CCNCC2)cc1Nc1cccc(-c2ncn(C)n2)c1OC [Example 28]
200	[2H]C([2H])([2H])NC(=O)c1cnc(NC(=O)OC(C)C)cc1Nc1cccc(-c2ncn(C)n2)c1OC [Example 32]
150	[2H]C([2H])([2H])NC(=O)c1nnc(NC(=O)NCC(C)C)cc1Nc1cccc(-c2ncn(C)n2)c1OC [Example 36]
80	[2H]C([2H])([2H])NC(=O)c1nnc(NC(=O)NC)cc1Nc1cccc(-c2ncn(C)n2)c1OC [Example 45]
430	[2H]C([2H])([2H])NC(=O)c1nnc(NC(=O)N(C)CC(=C)C)cc1Nc1cccc(-c2ncn(C)n2)c1OC [Example 47]

The next lines start with the compound.

SMILES	IC50 [nM]
[2H]C([2H])([2H])NC(=O)c1nnc(NC(=O)NCC)cc1Nc1cccc(-c2noc(C)n2)c1OC [Example 2, 6-(3-ethylureido)-4-((2-methoxy-3-(5-methyl-1,2,4-oxadiazol-3-yl)phenyl)amino)-N-(trideuteromethyl)pyridazine-3-carboxamide]	110
[2H]C([2H])([2H])NC(=O)c1nnc(NC(=O)OC)cc1Nc1ccccc1NS(=O)(=O)C1CC1 [Example 5, methyl (5-((2-(cyclopropanesulfonamido)phenyl)amino)-6-((methyl-d3)carbamoyl)pyridazin-3-yl)carbamate]	750
CNC(=O)c1cnc(NC(=O)Nc2ccccc2)cc1Nc1ccccc1S(C)(=O)=O [Example 6, N-methyl-4-((2-(methylsulfonyl)phenyl)amino)-6-(3-phenylureido)nicotinamide]	> 10000
[2H]C([2H])([2H])NC(=O)c1nnc(NC(=O)NCC#C)cc1Nc1cccc(-c2ncn(C)n2)c1OC [Example 11]	60
[2H]C([2H])([2H])NC(=O)c1nnc(NC(=O)N2CCCCC2)cc1Nc1cccc(-c2ncn(C)n2)c1OC [Example 12]	610
[2H]C([2H])([2H])NC(=O)c1nnc(NC(=O)NCC)cc1Nc1ccccc1S(C)(=O)=O [Example 15]	520
[2H]C([2H])([2H])NC(=O)c1nnc(NC(=O)NCC)cc1Nc1cccc(-c2ncn(C)n2)c1OC [Example 16]	20
[2H]C([2H])([2H])NC(=O)c1nnc(NC(=O)NC(C)C)cc1Nc1cccc(-c2ncn(C)n2)c1OC [Example 18]	150
[2H]C([2H])([2H])NC(=O)c1nnc(NC(=O)N(C)C)cc1Nc1cccc(-c2ncn(C)n2)c1OC [Example 22]	220
[2H]C([2H])([2H])NC(=O)c1nnc(NC(=O)NCCCC)cc1Nc1cccc(-c2ncn(C)n2)c1OC [Example 23]	150
[2H]C([2H])([2H])NC(=O)c1nnc(NC(=O)NC(C)(C)C)cc1Nc1cccc(-c2ncn(C)n2)c1OC [Example 24]	230
[2H]C([2H])([2H])NC(=O)c1nnc(NC(=O)Nc2ccccn2)cc1Nc1cccc(-c2ncn(C)n2)c1OC [Example 25]	1180
[2H]C([2H])([2H])NC(=O)c1nnc(NC(=O)N2CCOCC2)cc1Nc1cccc(-c2ncn(C)n2)c1OC [Example 26]	1180
[2H]C([2H])([2H])NC(=O)c1cnc(NC(=O)OCC)cc1Nc1cccc(-c2ncn(C)n2)c1OC [Example 29]	110
[2H]C([2H])([2H])NC(=O)c1cnc(NC(=O)OC)cc1Nc1cccc(-c2ncn(C)n2)c1OC [Example 30]	100
[2H]C([2H])([2H])NC(=O)c1nnc(NC(=O)NC2CCCCC2)cc1Nc1cccc(-c2ncn(C)n2)c1OC [Example 33]	120
[2H]C([2H])([2H])NC(=O)c1nnc(NC(=O)Nc2ccccc2)cc1Nc1cccc(-c2ncn(C)n2)c1OC [Example 34]	520
[2H]C([2H])([2H])NC(=O)c1nnc(NC(=O)Nc2cccc(C)c2)cc1Nc1cccc(-c2ncn(C)n2)c1OC [Example 35]	500
[2H]C([2H])([2H])NC(=O)c1nnc(NC(=O)NCC=C)cc1Nc1cccc(-c2ncn(C)n2)c1OC [Example 37]	60
[2H]C([2H])([2H])NC(=O)c1cnc(NC(=O)OC)cc1Nc1cccc(-c2nnn(C)n2)c1OC [Example 38]	130
[2H]C([2H])([2H])NC(=O)c1nnc(NC(=O)N(C)CCc2ccccc2)cc1Nc1cccc(-c2ncn(C)n2)c1OC [Example 39]	2460
[2H]C([2H])([2H])NC(=O)c1nnc(NC(=O)NCc2ccccc2)cc1Nc1cccc(-c2ncn(C)n2)c1OC [Example 40]	290
[2H]C([2H])([2H])NC(=O)c1nnc(NC(=O)OC)cc1Nc1cccc(-c2ncn(C)n2)c1OC [Example 41]	210
[2H]C([2H])([2H])NC(=O)c1nnc(NC(=O)N(C)CC)cc1Nc1cccc(-c2ncn(C)n2)c1OC [Example 42]	350
[2H]C([2H])([2H])NC(=O)c1nnc(NC(=O)N(C)CCOC)cc1Nc1cccc(-c2ncn(C)n2)c1OC [Example 43]	570
[2H]C([2H])([2H])NC(=O)c1nnc(NC(=O)N(C)CCC)cc1Nc1cccc(-c2ncn(C)n2)c1OC [Example 44]	330
[2H]C([2H])([2H])NC(=O)c1nnc(NC(=O)N(C)C2CC2)cc1Nc1cccc(-c2ncn(C)n2)c1OC [Example 46]	2210
